The values below come from publication PMC12670317, “Targeted NAT10 Degradation by PROTAC NP1192 Suppresses Hypoxia-Adaptive Glycolysis and Reinvigorates CD8^+ Effector T‑Cell Function for Synergistic Cancer Immunotherapy” (ACS Central Science, 2025).

Series [1] has as its system SiHa cells. Briefly: SiHa cell viability IC50 (CCK-8). The class given is cell-based, human. The method, then: NAT10^± SiHa cells and SiHa cells treated with DMSO, Remodelin or NP1192 for 36 h were seeded into the wells of a 96-well microplate at identical densities of 2000 or 3000 cells per well. After the cells adhered to the well surface, 110 μL of a 1:10 mixture of CCK-8 reagent (Meilunbio, China) and RPMI 1640 medium was added to each well. The microplate was then incubated for another 2 h in the incubator, and the mixture was replaced with an equal volume of medium. A microplate reader (BioTek, US) was used to measure the absorption at a wavelength of 450 nm.

The test system of a further series is NP1192^Resist SiHa cells. Briefly: IC50 and resistance index in NP1192-resistant SiHa cells (CCK-8). In kind it is cell-based, human. Here is the method:
We generated Remodelin-resistant (Remodelin^Resist SiHa) and NP1192-resistant (NP1192^Resist SiHa) SiHa CCa cell lines by applying a stepwise dose escalation strategy, as previously described in the literature. To quantitatively assess resistance, we calculated the resistance index for each subline following the established methodologies. Briefly, 3000 cells per well were seeded in 96-well plates and treated with increasing concentrations of Remodelin or NP1192 (0, 10, 50, 100, and 150 μM) for 24 h. Following treatment, 10 μL of CCK-8 reagent was added to each well and incubated for an additional 2 h. Absorbance at 490 nm was measured, and the IC50 values were calculated using GraphPad Prism 9.0. The RI was defined as the ratio of the IC50 in resistant cells to that in parental cells.

Series [2] relates to high-grade serous ovarian carcinoma (OV) patient-derived organoids. Briefly: ATP-based viability assay in patient-derived organoids, OV. In kind it is cell-based. Particulars: Homo sapiens, OV PDOs, read-out: IC50, organoid viability. The method, then: (§1) Organoid culture was performed according to previously established protocols. Briefly, we procured patient-derived tissue samples provided and technically manipulated by Accurate International Biotechnology Co., Ltd. Subsequently, these samples were subjected to mechanical and enzymatic dissociation to disaggregate the tissue into single cells or small clusters, while preserving cellular integrity. Following this initial step, the isolated cells or tissue fragments were embedded within a 3D ECM scaffold, such as Matrigel or collagen. The ECM scaffold served as a supportive substrate, promoting cellular self-organization and mimicking native tissue architecture. Additionally, a precisely formulated cocktail of growth factors, cytokines, and signaling molecules tailored to the specific tissue of interest was meticulously formulated and added to the culture medium to facilitate organoid growth and maintenance.

Series [3] concerns cervical squamous cell carcinoma and endocervical adenocarcinoma (CESC) patient-derived organoids. Briefly: ATP-based viability assay in patient-derived organoids, CESC. In kind it is cell-based. Particulars: Homo sapiens, CESC PDOs, read-out: IC50, organoid viability. Here is the method:
as §1

Series [4] has as its system glioblastoma (GBM) patient-derived organoids. Kind of series: ATP-based viability assay in patient-derived organoids, GBM. The class given is cell-based. The following applies: Homo sapiens, GBM PDOs, read-out: IC50, organoid viability. The method, then:
as §1

The next series relates to RNA ac4C modification. Kind of series: ac4C RNA dot blot in SiHa cells. Particulars: 20 μM, 36 h, vs Remodelin-treated and NAT10-knockdown groups. The class given is cell-based, human. Here is the method:
RNA was extracted from cells via an RNA extraction kit (TransGen, China) and denatured by heating to 65 °C for 5 min in the presence of 2× RNA denaturation buffer (Solarbio, China) followed by an equal amount of 20x SSC buffer (Beyotime, China). A nylon membrane (Yeasen, China) was used to immobilize the denatured RNA by dotting RNA samples onto the membrane and cross-linking the RNA to the membrane via UV light. The samples were stained with methylene blue and photographed. Furthermore, the membrane was blocked with 5% milk and incubated with an anti-ac4C primary antibody (1:1000, Abcam, US) for 12 h. After the unbound primary antibody was washed away, the membrane was incubated with a secondary antibody (1:6000, Elabscience, China). The membrane was then washed to remove unbound secondary antibodies, and a detection reagent (Bio-Rad, US) was added to visualize the RNA bands via chemiluminescence with a ChemiDoc MP Imaging System (Bio-Rad, US).

In series [5] the test system is SiHa cells. Kind of series: Transwell invasion assay in SiHa cells. The following applies: pretreated 20 μM 36 h, 12 h. In kind it is cell-based, human. Here is the method:
The Transwell chamber was assembled by coating the porous membrane insert in the top compartment with Matrigel to form a layer of extracellular matrix (ECM), and the top compartment was placed into a cell culture plate. NAT10^± SiHa cells and SiHa cells treated with DMSO, Remodelin or NP1192 for 36 h were collected and resuspended in serum-free medium at a density of 10,000 cells/200 μL of medium. Then, the cell suspension was added to the top compartment of the Transwell chamber, and the plate was placed in the incubator for 12 h. After incubation, the cells on the bottom surface of the membrane were fixed and stained. The cells were visualized under a microscope, and the number of cells that migrated through the membrane was determined via ImageJ software.

The next series deals with HFF-1 cells. Briefly: Cytotoxicity in nonmalignant HFF-1 cells. The class given is cell-based, human. The following applies: HFF-1 cells with low NAT10 expression.
For another series, the system named is PD-L1. Briefly: PD-L1 protein level in SiHa cells, Western blot. Particulars: 36 h. The class given is cell-based, human. The method, then: RIPA lysis buffer (Beyotime, China) mixed with 1% protease inhibitor (Sigma, US) was added to the cells, and a sample of total protein was obtained and then loaded onto an 8% or 12% polyacrylamide gel. The gel was placed in a buffer solution, and an electric current was applied. The separated proteins were subsequently transferred from the gel onto a PVDF membrane. Next, the membrane was blocked with 5% milk for 1 h to prevent nonspecific antibody binding. The membranes were subsequently incubated with anti-NAT10 (1:1000, Abcam, USA), anti-PD-L1 (1:1000, Proteintech, China), anti-HIF-1α (1:1000, Abmart, China), and anti-β-tubulin (1:1000, Proteintech, China) primary antibodies for 12 h. Afterward, the membrane was sequentially washed with 1× TBST and incubated for 1 h with an antimouse secondary antibody (1:6000, Elabscience, China) or antirabbit secondary antibody (1:6000, Elabscience, China). The target proteins were detected via chemiluminescence with a ChemiDoc MP Imaging System (Bio-Rad, US).

Another series relates to normal organoids. Briefly: Normal organoids exposed to NP1192. The class given is cell-based, human. The following applies: following NP1192 exposure. Here is the method:
as §1

Series [6] relates to CD8+ TILs, M2 macrophages, MDSCs and Treg cells in U14 xenograft tumors. Particulars: Figure 7A.
Method: U14 cells (1 × 10^7 cells per mouse, approximately 100–150 μL of cell suspension) were implanted subcutaneously into the lateral lower dorsal surface of each mouse. The tumors were allowed to grow for 7 days, and the mice were then administered one of five treatments (group 1: U14 cells + DMSO; group 2: U14 cells + Remodelin; group 3: U14 cells + anti-PD-L1 antibody; group 4: U14 cells + NP1192; group 5: U14 cells + anti-PD-L1 antibody + NP1192). Each group of mice was assigned according to the principles of randomization and the blinding method. Tumors were measured every 2 days, and tumor volume was calculated via the following equation: volume = (width)^2 × length/2. Remodelin and NP1192 were injected into the peritumoral area every 2 days at a dose of 25 mg/kg, and the in vivo antimouse PD-L1 antibody (low endotoxin) was injected every 3 days at a dose of 2.5 mg/kg.
After the mice were euthanized, the tumor and peritumoral tissues were analyzed with an immunoflow kit (BioLegend, USA). The antibodies used for immunoflow cytometry included antihuman/mouse antibodies specific for CD11b-BV711, F4/80-AF647, CD206-PE, CD86-BV605, CD4-CD4-FITC IL-17-17-CY7/CY7, CD25-PE, FOXP3-AF647, CD4-BV605, CD45-PE/CY7, CD11b-BV711 and LY-6G/LY-6C-BV421 (BioLegend catalog no. 321239, RRID:AB_2860843). All data analyses were performed via GraphPad Prism 9, and the data are presented as the mean ± SEMs.

As for `N#Cc1ccc(-c2csc(N(CCCCCCC(=O)N3CCN(c4cccc5c4C(=O)N(C4CCC(=O)NC4=O)C5=O)CC3)N=C3CCCC3)n2)cc1` (stereo not shown) [NP1192], the IC50 turned out to be 7.81 µM in the series with SiHa cells [1] (Homo sapiens, parental SiHa cells, 36 h, read-out: IC50, inhibition of SiHa cell viability); 76.2 µM in the series on NP1192^Resist SiHa cells (Homo sapiens, NP1192^Resist SiHa cells); 9.95 µM in series [2]; 3.05 µM in series [3]; 13.8 µM in series [4]. Also, the “IC50 lower than that of Remodelin” value in the series on SiHa cells [1] (SiHa cells) was 26.8%. Also, the “resistance index (RI = IC50 resistant/parental SiHa)” value with NP1192^Resist SiHa cells (76.2/7.814) was found to be 9.75. The “RNA ac4C levels” value with RNA ac4C modification is recorded as “significant reduction in ac4C levels”. The cell invasion result in the series with SiHa cells [5] was “substantially hindered CCa cell invasion”. Moreover, in the series on HFF-1 cells, the “cytotoxicity in nonmalignant cells” value is on record as “minimal cytotoxicity”. The PD-L1 protein level entry in the series on PD-L1 was “pronounced downregulation of PD-L1”. The “architecture and cellular integrity of normal organoids” value in the series with normal organoids is “remained unaltered”. In addition, in series [6] (CD4+CD25+FOXP3+), the Treg gate was determined as 0.00%. In series [6] (CD11b+F4/80+CD206+), the “M2 (M2 macrophages gate)” value came out at 8.10%. The MDSC gate in series [6] (CD11b+LY-6G+) is given as 4.96%. Further, the “CD8+ (CD8+ TILs gate)” value in series [6] (tumors after treatment) worked out at 4.30%.
